Source: patent US12077503B2, “Substituted cyclic amides and their use as herbicides” (FMC CORPORATION, priority 2015, dated 2024)

Columns and labels:
Assay type in all cases: in vivo
[1] = tested on: barnyardgrass (Echinochloa crus-galli); assay: Test A preemergence; settings: Echinochloa crus-galli, pre-emergence, 240 h; for pest or weed control at 125 g/ha: 125 g ai/ha; for pest or weed control at 500 g/ha: 500 g ai/ha, visual injury rating about 10 d after treatment, 0 to 100 scale (0 no effect, 100 complete control)
Outline: (§1)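 Treatment is preemergence as a directed soil spray after planting, or postemergence at the one- to two-leaf stage, with test chemical in a non-phytotoxic solvent mixture plus surfactant. Plants stay in the greenhouse about 10 d before visual injury scoring on a 0 to 100 scale versus untreated controls.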

Kochia (Kochia scoparia) [2] = assay: Test A preemergence; settings: Bassia scoparia, pre-emergence, 240 h, preemergence, read-out: Kochia plant response rating; for pest or weed control at 125 g/ha: 125 g ai/ha, approx. 10 d; for pest or weed control at 500 g/ha: 500 g ai/ha
Outline: as §1

[3] = tested on: ragweed (common ragweed, Ambrosia elatior); assay: Test A preemergence; settings: Ambrosia artemisiifolia, pre-emergence, 240 h, preemergence, read-out: Ragweed plant response rating; for pest or weed control at 125 g/ha: 125 g ai/ha, approx. 10 d; for pest or weed control at 500 g/ha: 500 g ai/ha
Outline: as §1

[4] = tested on: pigweed (Amaranthus retroflexus); assay: Test A preemergence; settings: Amaranthus retroflexus, pre-emergence, 240 h, preemergence, read-out: Pigweed plant response rating; for pest or weed control at 125 g/ha: 125 g ai/ha, approx. 10 d; for pest or weed control at 500 g/ha: 500 g ai/ha
[5] = tested on: giant foxtail (Setaria faberii); assay: Test A preemergence; settings: Setaria faberi, pre-emergence, 240 h; for pest or weed control at 125 g/ha: 125 g ai/ha; for pest or weed control at 500 g/ha: 500 g ai/ha
Outline: as §1

[6] = tested on: ryegrass, Italian (Italian ryegrass, Lolium multiflorum); assay: Test A preemergence; settings: Lolium multiflorum, pre-emergence, 240 h, preemergence, read-out: Ryegrass, Italian plant response rating; for pest or weed control at 125 g/ha: 125 g ai/ha, approx. 10 d; for pest or weed control at 500 g/ha: 500 g ai/ha
Outline: as §1

[7] = tested on: blackgrass (Alopecurus myosuroides); assay: Test A postemergence; settings: Alopecurus myosuroides, post-emergence, 240 h, postemergence, read-out: Blackgrass plant response rating; for pest or weed control at 125 g/ha: 125 g ai/ha, visual injury on 0 to 100 scale (0 no effect, 100 complete control), approx. 10 d; for pest or weed control at 500 g/ha: 500 g ai/ha, 0 to 100 scale, 0 is no effect, 100 is complete control
Outline: as §1

[8] = tested on: barnyardgrass (Echinochloa crus-galli); assay: Test A postemergence; settings: Echinochloa crus-galli, post-emergence, 240 h, postemergence, read-out: Barnyardgrass plant response rating; for pest or weed control at 125 g/ha: 125 g ai/ha, visual injury on 0 to 100 scale (0 no effect, 100 complete control), approx. 10 d; for pest or weed control at 500 g/ha: 500 g ai/ha, 0 to 100 scale, 0 is no effect, 100 is complete control
Outline: as §1

Kochia (Kochia scoparia) [9] = assay: Test A postemergence; settings: Bassia scoparia, post-emergence, 240 h, postemergence, read-out: Kochia plant response rating; for pest or weed control at 125 g/ha: 125 g ai/ha, visual injury on 0 to 100 scale (0 no effect, 100 complete control), approx. 10 d; for pest or weed control at 500 g/ha: 500 g ai/ha, 0 to 100 scale, 0 is no effect, 100 is complete control
Outline: as §1

[10] = tested on: ragweed (common ragweed, Ambrosia elatior); assay: Test A postemergence; settings: Ambrosia artemisiifolia, post-emergence, 240 h, postemergence, read-out: Ragweed plant response rating; for pest or weed control at 125 g/ha: 125 g ai/ha, visual injury on 0 to 100 scale (0 no effect, 100 complete control), approx. 10 d; for pest or weed control at 500 g/ha: 500 g ai/ha, 0 to 100 scale, 0 is no effect, 100 is complete control
Outline: as §1

[11] = tested on: pigweed (Amaranthus retroflexus); assay: Test A postemergence; settings: Amaranthus retroflexus, post-emergence, 240 h, postemergence, read-out: Pigweed plant response rating; for pest or weed control at 125 g/ha: 125 g ai/ha, visual injury on 0 to 100 scale (0 no effect, 100 complete control), approx. 10 d; for pest or weed control at 500 g/ha: 500 g ai/ha, 0 to 100 scale, 0 is no effect, 100 is complete control
Outline: as §1

corn (Zea mays) = assay: Test A postemergence; settings: Zea mays, post-emergence, 240 h, postemergence, read-out: Corn plant response rating; for plant injury at 125 g/ha: 125 g ai/ha, visual injury on 0 to 100 scale (0 no effect, 100 complete control), approx. 10 d; for plant injury at 500 g/ha: 500 g ai/ha, 0 to 100 scale, 0 is no effect, 100 is complete control
Outline: as §1

[12] = tested on: giant foxtail (Setaria faberii); assay: Test A postemergence; settings: Setaria faberi, post-emergence, 240 h, postemergence, read-out: Foxtail, Giant plant response rating; for pest or weed control at 125 g/ha: 125 g ai/ha, visual injury on 0 to 100 scale (0 no effect, 100 complete control), approx. 10 d; for pest or weed control at 500 g/ha: 500 g ai/ha, 0 to 100 scale, 0 is no effect, 100 is complete control
Outline: as §1

[13] = tested on: Galium (catchweed bedstraw, Galium aparine); assay: Test A postemergence; settings: Galium, post-emergence, 240 h, postemergence, read-out: Galium plant response rating; for pest or weed control at 125 g/ha: 125 g ai/ha, visual injury on 0 to 100 scale (0 no effect, 100 complete control), approx. 10 d; for pest or weed control at 500 g/ha: 500 g ai/ha, 0 to 100 scale, 0 is no effect, 100 is complete control
Outline: as §1

[14] = tested on: ryegrass, Italian (Italian ryegrass, Lolium multiflorum); assay: Test A postemergence; settings: Lolium multiflorum, post-emergence, 240 h, postemergence, read-out: Ryegrass, Italian plant response rating; for pest or weed control at 125 g/ha: 125 g ai/ha, visual injury on 0 to 100 scale (0 no effect, 100 complete control), approx. 10 d; for pest or weed control at 500 g/ha: 500 g ai/ha, 0 to 100 scale, 0 is no effect, 100 is complete control
Outline: as §1

[15] = tested on: wheat (Triticum aestivum); assay: Test A postemergence; settings: Triticum aestivum, post-emergence, 240 h, postemergence, read-out: Wheat plant response rating; for plant injury at 125 g/ha: 125 g ai/ha, visual injury on 0 to 100 scale (0 no effect, 100 complete control), approx. 10 d; for plant injury at 500 g/ha: 500 g ai/ha, 0 to 100 scale, 0 is no effect, 100 is complete control
Outline: as §1

[16] = preemergence, read-out: Barnyardgrass plant response rating
[17] = 0 to 100 scale where 0 is no effect and 100 is complete control
[18] = visual injury rating about 10 d after treatment, 0 to 100 scale (0 no effect, 100 complete control)

Structure (SMILES)	pest or weed control at 500 g/ha [1, 16] [%]	pest or weed control at 125 g/ha (Kochia (Kochia scoparia) [2]; [17]) [%]	pest or weed control at 125 g/ha [3, 17] [%]	pest or weed control at 125 g/ha [4, 17] [%]	pest or weed control at 125 g/ha [6, 17] [%]	pest or weed control at 125 g/ha [7] [%]	pest or weed control at 500 g/ha [7] [%]	pest or weed control at 125 g/ha [8] [%]	pest or weed control at 500 g/ha [8] [%]	pest or weed control at 125 g/ha (Kochia (Kochia scoparia) [9]) [%]	pest or weed control at 500 g/ha (Kochia (Kochia scoparia) [9]) [%]	pest or weed control at 125 g/ha [10] [%]	pest or weed control at 500 g/ha [10] [%]	pest or weed control at 125 g/ha [11] [%]	pest or weed control at 500 g/ha [11] [%]	plant injury at 125 g/ha (corn (Zea mays)) [%]	plant injury at 500 g/ha (corn (Zea mays)) [%]	pest or weed control at 125 g/ha [12] [%]	pest or weed control at 500 g/ha [12] [%]	pest or weed control at 125 g/ha [13] [%]	further results
O=C1NC[C@H](c2csc(C(F)F)c2)[C@H]1C(=O)Nc1ccccc1F [Compound 1118]	90	0	20	0	40	20	60	80	90	0	30	0	20	0	20	0	20	0	50	50	pest or weed control at 125 g/ha ([1]; preemergence, 0 to 100 scale where 0 is no effect and 100 is complete control, approx. 10 d, read-out: Barnyardgrass plant response rating): 80%; pest or weed control at 500 g/ha (Kochia (Kochia scoparia) [2]; [17]): 70%; pest or weed control at 500 g/ha [3, 17]: 60%; pest or weed control at 500 g/ha [4, 17]: 0%; pest or weed control at 125 g/ha ([5]; preemergence, 0 to 100 scale where 0 is no effect and 100 is complete control, approx. 10 d, read-out: Foxtail, Giant plant response rating): 60%; pest or weed control at 500 g/ha ([5]; preemergence, 0 to 100 scale where 0 is no effect and 100 is complete control, read-out: Foxtail, Giant plant response rating): 90%; pest or weed control at 500 g/ha [6, 17]: 50%; pest or weed control at 500 g/ha [13]: 60%; pest or weed control at 125 g/ha [14]: 20%; pest or weed control at 500 g/ha [14]: 50%; plant injury at 125 g/ha [15]: 20%; plant injury at 500 g/ha [15]: 20%
CSc1ccccc1NC(=O)C1C(=O)NCC1C=C(C)C (stereo not shown) [Compound 1055]	0	0	0	0	0	0	0	0	0	0	0	0	0	0	0	0	0	0	0	0	pest or weed control at 125 g/ha ([1]; Preemergence, visual injury rating after approximately 10 d, read-out: Barnyardgrass plant response rating (0 to 100 scale, 0 is no effect, 100 is complete control)): 0%; pest or weed control at 500 g/ha (Kochia (Kochia scoparia) [2]; [18]): 0%; pest or weed control at 500 g/ha [3, 18]: 0%; pest or weed control at 500 g/ha [4, 18]: 0%; pest or weed control at 125 g/ha ([5]; Preemergence, visual injury rating after approximately 10 d, read-out: Foxtail, Giant plant response rating (0 to 100 scale, 0 is no effect, 100 is complete control)): 0%; pest or weed control at 500 g/ha ([5]; preemergence, visual injury rating about 10 d after treatment, 0 to 100 scale (0 no effect, 100 complete control), read-out: Foxtail, Giant plant response rating): 0%; pest or weed control at 500 g/ha [6, 18]: 0%; pest or weed control at 500 g/ha [13]: 0%; pest or weed control at 125 g/ha [14]: 0%; pest or weed control at 500 g/ha [14]: 0%; plant injury at 125 g/ha [15]: 0%; plant injury at 500 g/ha [15]: 0%
